Measurements: patent US20090012045A1, “Methods of Treating Cell Proliferative Disorders” (RIGEL PHARMACEUTICALS, INC., priority 2007, published 2009)

What was measured:
HL-60(TB) = HL-60(TB) (Leukemia)
MOLT-4 = MOLT-4 (Leukemia)
EKVX = EKVX (Non-Small Cell Lung Cancer)
NCI-H226 = NCI-H226 (Non-Small Cell Lung Cancer)
NCI-H23 = NCI-H23 (Non-Small Cell Lung Cancer)
NCI-H460 = NCI-H460 (Non-Small Cell Lung Cancer)
NCI-H522 = NCI-H522 (Non-Small Cell Lung Cancer)
HCT-116 = HCT-116 (Colon Cancer)
HCT-15 = HCT-15 (Colon Cancer)
KM12 = KM12 (Colon Cancer)
SW-620 = SW-620 (Colon Cancer)
SNB-75 = SNB-75 (CNS Cancer)
LOX I MVI = LOX I MVI (Melanoma)
MALME-3M = MALME-3M (Melanoma)
M14 = M14 (Melanoma)
OVCAR-3 = OVCAR-3 (Ovarian Cancer)
OVCAR-5 = OVCAR-5 (Ovarian Cancer)
A498 = A498 (Renal Cancer)
CAKI-1 = CAKI-1 (Renal Cancer)
SN12C = SN12C (Renal Cancer)
TK-10 = TK-10 (Renal Cancer)
DU-145 = DU-145 (Prostate Cancer)
NCI/ADR-RES = NCI/ADR-RES (Breast Cancer)
MDA-MB-231/ATCC = MDA-MB-231/ATCC (Breast Cancer)
HS 578T = HS 578T (Breast Cancer)
BT-549 = BT-549 (Breast Cancer)
PC-3 = test: in vitro antiproliferation assay, Prostate Cancer; conditions: PC-3 (Prostate Cancer)

## COc1cc(Nc2ncc(F)c(Nc3ccc4c(n3)NC(=O)C(C)(C)O4)n2)cc(OC)c1OC.O=S(=O)(O)c1ccccc1 [Compound 1 (besylate salt), N4-(2,2-Dimethyl-3-oxo-4H-5-pyrid[1,4]oxazin-6-yl)-5-fluoro-N2-(3,4,5-trimethoxyphenyl)-2,4-pyrimidinediamine Benzenesulfonic Acid Salt]
HL-60(TB)
  GI50: > 100 µM
  TGI: >1.00E−4
HL-60(TB); read-out: LC50
  CC50: > 100 µM
MOLT-4
  GI50: 4.82 µM
  TGI: >1.00E−4
MOLT-4; read-out: LC50
  CC50: > 100 µM
EKVX
  GI50: 1.66 µM
  TGI: >1.00E−4
EKVX; read-out: LC50
  CC50: > 100 µM
NCI-H226
  GI50: 0.497 µM
NCI-H226; read-out: LC50
  CC50: > 100 µM
NCI-H23
  TGI: >1.00E−4
NCI-H23; read-out: LC50
  CC50: > 100 µM
NCI-H460
  TGI: >1.00E−4
NCI-H460; read-out: LC50
  CC50: > 100 µM
NCI-H522
  TGI: >1.00E−4
NCI-H522; read-out: LC50
  CC50: > 100 µM
HCT-116
  TGI: >1.00E−4
HCT-116; read-out: LC50
  CC50: > 100 µM
HCT-15
  TGI: >1.00E−4
HCT-15; read-out: LC50
  CC50: > 100 µM
KM12
  GI50: 0.355 µM
  TGI: >1.00E−4
KM12; read-out: LC50
  CC50: > 100 µM
SW-620
  TGI: >1.00E−4
SW-620; read-out: LC50
  CC50: > 100 µM
SNB-75
  GI50: 0.871 µM
  TGI: >1.00E−4
SNB-75; read-out: LC50
  CC50: > 100 µM
LOX I MVI
  GI50: 1.13 µM
  TGI: 1.13E−6
LOX I MVI; read-out: LC50
  CC50: > 100 µM
MALME-3M
  GI50: > 100 µM
  TGI: >1.00E−4
MALME-3M; read-out: LC50
  CC50: > 100 µM
M14
  GI50: > 100 µM
  TGI: >1.00E−4
M14; read-out: LC50
  CC50: > 100 µM
OVCAR-3
  GI50: > 100 µM
  TGI: >1.00E−4
OVCAR-3; read-out: LC50
  CC50: > 100 µM
OVCAR-5
  GI50: > 100 µM
  TGI: >1.00E−4
OVCAR-5; read-out: LC50
  CC50: > 100 µM
A498
  GI50: 0.36 µM
A498; read-out: LC50
  CC50: > 100 µM
CAKI-1
  GI50: 0.0515 µM
  TGI: 2.44E−6
CAKI-1; read-out: LC50
  CC50: > 100 µM
SN12C
  GI50: 0.698 µM
  TGI: >1.00E−4
SN12C; read-out: LC50
  CC50: > 100 µM
TK-10
  TGI: >1.00E−4
TK-10; read-out: LC50
  CC50: > 100 µM
DU-145
  TGI: >1.00E−4
DU-145; read-out: LC50
  CC50: > 100 µM
NCI/ADR-RES
  GI50: > 100 µM
  TGI: >1.00E−4
NCI/ADR-RES; read-out: LC50
  CC50: > 100 µM
MDA-MB-231/ATCC
  TGI: >1.00E−4
MDA-MB-231/ATCC; read-out: LC50
  CC50: > 100 µM
HS 578T
  GI50: 1.19 µM
  TGI: >1.00E−4
HS 578T; read-out: LC50
  CC50: > 100 µM
BT-549
  GI50: 2.43 µM
  TGI: >1.00E−4
BT-549; read-out: LC50
  CC50: > 100 µM
PC-3
  GI50: 3.07 µM
  TGI: >1.00E−4
PC-3; read-out: LC50
  CC50: > 100 µM
